Assay results taken from PubChem BioAssay AID384 (SGCOxCompounds, 2006).

Biological target: Casein kinase I isoform gamma-2 (Homo sapiens) (UniProt P78368)
Experiment: ligand binding to human CK1 gamma-2 kinase – biophysical, DSF, SYPRO orange, recombinant protein (AID 384)
Conditions: recombinant CSNK1G2, DSF thermal shift, at 10 µM, protein 2 µM, buffer 10 mM HEPES, stronger effect = higher value

Casein kinase I isoform gamma-2 (Homo sapiens), sequence (P78368 whole entry, looked up, canonical isoform): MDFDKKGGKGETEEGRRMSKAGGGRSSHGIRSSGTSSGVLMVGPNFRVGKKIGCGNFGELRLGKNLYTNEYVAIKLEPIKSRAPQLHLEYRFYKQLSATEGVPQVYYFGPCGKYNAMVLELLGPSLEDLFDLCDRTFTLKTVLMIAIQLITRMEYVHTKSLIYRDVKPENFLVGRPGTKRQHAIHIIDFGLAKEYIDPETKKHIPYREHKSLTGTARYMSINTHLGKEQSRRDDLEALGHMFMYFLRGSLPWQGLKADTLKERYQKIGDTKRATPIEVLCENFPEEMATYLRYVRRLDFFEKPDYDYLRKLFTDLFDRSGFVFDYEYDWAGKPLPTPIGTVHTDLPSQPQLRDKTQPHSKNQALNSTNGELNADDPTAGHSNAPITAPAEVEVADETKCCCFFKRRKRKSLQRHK

SMILES	Tm shift (NaCl 100 mM) [Celsius]	Tm shift (pH 7.5, NaCl 150 mM) [Celsius]
O=c1c(O)c(-c2ccc(O)c(O)c2)oc2cc(O)ccc12	3.19	–
O=c1cc(-c2ccc(O)c(O)c2)oc2cc(O)cc(O)c12	4.55	–
Cc1cc(Nc2nc(-c3ccccc3)nc3ccccc23)n[nH]1	–	3.3
CSc1nc(-c2ccnc(NC(C)c3ccccc3)c2)c(-c2ccc(F)cc2)[nH]1 (configuration not stated)	–	3.4
CCn1cnc2c(Nc3cccc(Cl)c3)nc(N[C@@H]3CCCC[C@@H]3N)nc21	3.79	–
NC1=N/C(=C2/CCNC(=O)c3[nH]c(Br)cc32)C(=O)N1	8.12	4.4
O=Nc1c(-c2c(O)[nH]c3ccc(S(O)(O)O)cc23)[nH]c2ccccc12	–	3.1
Nc1ncnc2c1c(I)cn2[C@@H]1O[C@H](CO)C(O)C1O (some centres not stated)	4.69	3.3
CC(C)n1cnc2c(Nc3cccc(Cl)c3)nc(NCCO)nc21	5.58	4.7
Nc1nc(Nc2cccc(Cl)c2)sc1C(=O)c1ccc(F)cc1	–	3.4
Clc1ccc(Nc2ncc(-c3cn[nH]c3)n3ccnc23)cc1	3.76	–
NC1=N/C(=C2\CCNC(=O)c3[nH]ccc32)C(=O)N1	3.67	–
COc1cc(O)c2c(c1)oc(=O)c1c3cc(O)c(O)cc3oc21	5.16	–
O=Nc1c(-c2c(O)[nH]c3ccc(I)cc23)[nH]c2ccccc12	–	3.6
O=c1[nH]c(O)c2c1c1c3ccccc3nc1n1cncc21	–	3.6
COc1ccc(Nc2nc(N)c(C(=O)c3ccc(Cl)cc3)s2)cc1	–	3.1
NC(=O)c1ccc(-c2nc(-c3ccc4c(c3)OCCO4)c(-c3ccccn3)[nH]2)cc1	–	4.3
Cc1nc(N)sc1-c1ccnc(Nc2cccc(-n3oo3)c2)n1	–	4
O=C1C(=O)C(c2cc(O)c(O)c(O)c2)Oc2cc(O)cc(O)c21 (configuration not stated)	3.74	–
O=c1c(O)c(-c2ccc(O)c(O)c2)oc2cc(O)cc(O)c12	–	3.1
CC(C)C(CO)Nc1nc(Nc2cccc(Cl)c2)c2ncn(C(C)C)c2n1 (configuration not stated)	4.92	–
COc1ccc(Nc2nc(N)c(C(=O)c3ccc(OC)cc3)s2)cc1	–	4.3
CCN(CC)CCNC(=O)c1c(C)[nH]c(/C=C2\C(=O)Nc3ccc(Cl)cc32)c1C	4.06	–
COc1cc(/C=C/C(=O)CC(=O)/C=C/c2ccc(O)c(OC)c2)ccc1O	4.92	–
